Results: US9737512B2, “Methods and compositions for treating chronic pain” (THE BOARD OF REGENTS OF THE UNIVERSITY OF TEXAS SYSTEM, priority 2015, dated 2017)

Columns and labels:
[1] = tested on: CFA-induced mechanical allodynia; assay: CFA-induced mechanical allodynia, von Frey test; assay type: in vivo, mice
Description: FIG. 1. Effect of ESI-09 in CFA-induced inflammatory mechanical allodynia. (A) Mice (n=4/group) received 5 μl CFA intraplantarly in the hind paws and were treated with vehicle or ESI-09 20 mg/kg (n=4) daily by oral gavage for 6 days starting immediately after CFA injection. Mechanical allodynia was quantified with von Frey Hairs using the up and down method at 24 hours after ESI treatment. (B) CFA-induced mechanical allodynia in WT, heterozygous, and homozygous Epac1-knockout mice. The sensitivity to mechanical stimulation was followed over time in wild-type (WT, n=3), Epac1^+/− (HE, n=6) and Epac1^−/− (HO, n=5) mice after intraplantar injection of 5 μl CFA. […] (D) Dose-response curve for the effect of ESI-09 (5, 20, or 50 mg/kg). Treatment was started on the 3rd day after CFA administration (n=4/group) (E) Mechanical allodynia was measured in WT mice with 6 days treatments of ESI-09 20 (n=3) and 50 mg/kg (n=4) to control for a potential effect on baseline mechanical sensitivity. Data are expressed as 50% withdrawal threshold in grams calculated as described in the methods section and represent mean±SEM. […] In FIG. 1B, *p<0.05, ** p<0.01 for WT versus HO, #p<0.05, ##P<0.01 for WT versus HE, +p<0.05, ++p<0.01 for HE versus HO. In FIG. 1D, **p<0.01 and ##p<0.01 are ESI-09 50 mg/kg and ESI-09 20 mg/kg compared to the Vehicle treated mice.
To determine whether the Epac inhibitor ESI-09 can be used to treat inflammatory pain, the CFA model was used. CFA was administered intraplantarly and mice were treated with ESI-09 20 mg/kg daily by oral gavage for 6 days starting immediately after injection of CFA. Mechanical allodynia was examined using the von Frey test.
ESI-09 20 mg/kg was administered orally three days after CFA. […] The effect of ESI-09 was dose-dependent (FIG. 1D). […] The beneficial effect of ESI-09 was detectable until at least 24 hours after the last dose. No effect of daily oral administration of 50 mg/kg ESI-09 on mechanical sensitivity in saline treated control mice was observed ([…]).

[2] = tested on: CFA-induced heat hyperalgesia; assay: CFA-induced heat hyperalgesia, Hargreaves test; assay type: in vivo, mice
Description: FIG. 2. Effect of ESI-09 on CFA-induced heat hyperalgesia. (A) Mice (n=4/group) received 5 μl CFA intraplantarly in the hind paws and were treated with vehicle or ESI-09 20 mg/kg (n=4) daily by oral gavage for 6 days starting after CFA injection. Heat hyperalgesia was determined using the Hargreaves test and is expressed as heat-withdrawal latency in seconds. (B) CFA-induced heat hyperalgesia in WT and Epac1−/− mice. (C) Heat sensitivity of saline treated mice with 20 mg/kg ESI-09. Data represent mean±SEM (n=4 per group).
Intraplantar administration of CFA also induces significant heat hyperalgesia (FIG. 2A). However, no effect of ESI-09 (20 mg/kg) on heat hyperalgesia was detected (FIG. 2A). Consistently, CFA-induced heat hyperalgesia was not different between WT and Epac1−/− mice.

[3] = tested on: SNI-induced mechanical allodynia; assay: Spared nerve injury (SNI)-induced mechanical allodynia, von Frey; assay type: in vivo, mice
Description: FIG. 3. Effect of ESI-09 on Spared nerve injury (SNI)-induced mechanical allodynia. Spared nerve injury was performed on WT mice and mice were treated daily with ESI-09 (50 mg/kg) or vehicle by oral gavage for 6 days starting on the 3rd day after SNI. Mechanical allodynia was monitored in (A) ipsi- and (B) contralateral paw using von Frey hairs and the up and down method at 24 hours after ESI-treatment (n=7 per group). Data are expressed as 50% paw withdrawal thresholds calculated as described in the methods section and represent mean±SEM. n=7/group. *p<0.05, **p<0.01 vs. vehicle group.
It has been shown that EPAC1−/− mice are protected against neuropathic pain in a model of nerve injury. The effect of ESI-09 in the spared nerve injury (SNI) model of chronic neuropathic pain was examined. […] As expected, mice treated with vehicle developed unilateral mechanical allodynia ([…]). […] The beneficial effect of ESI-09 was maintained for 48 hours after the last dose.

[4] = tested on: paclitaxel-induced mechanical allodynia; assay: Paclitaxel (chemotherapy)-induced mechanical allodynia, von Frey; assay type: in vivo, mice
Description: FIG. 4. Effect of ESI-09 on chemotherapy-induced mechanical allodynia. Mice (n=5/group) were treated with paclitaxel (10 mg/kg, Monday, Wednesday and Friday) for two weeks. ESI-09 (20 mg/kg) or vehicle was given by oral gavage for 6 days starting on the first day (A) or 10 days (B) after completion of paclitaxel treatment. The sensitivity to mechanical stimulation was determined in wild-type (n=5) and Epac1−/− (n=4) in the same paclitaxel model (C). Mechanical allodynia was monitored by von Frey hair using the up and down method. Data are expressed as means±SEM. *p<0.05, ** p<0.01.
Chemotherapy-induced peripheral neuropathy is a frequent side effect of cancer treatment, and currently there are no FDA-approved drugs to treat or prevent chemotherapy-induced neuropathy. The model of paclitaxel-induced mechanical allodynia to investigate the potential effect of ESI-09 on chemotherapy-induced neuropathy. Mice were treated with three doses (10 mg/kg/dose) of paclitaxel per week for 2 weeks. Administration of ESI-09 was started on the first day after completion of paclitaxel treatment when there was clear allodynia present. Mice were treated daily with ESI-09 (20 mg/kg) or vehicle by oral gavage for 6 days. […] The beneficial effect of treatment was detectable until 72 hours after the last dose of ESI-09. In a second set of experiments, ESI-09 treatment was delayed until 10 days after the completion of paclitaxel treatment.

EPAC2 = molecular target: T1, EPAC2 (Mus musculus, UniProt Q9EQZ6); conditions: cited from earlier work
T1 sequence (Q9EQZ6 1-1011): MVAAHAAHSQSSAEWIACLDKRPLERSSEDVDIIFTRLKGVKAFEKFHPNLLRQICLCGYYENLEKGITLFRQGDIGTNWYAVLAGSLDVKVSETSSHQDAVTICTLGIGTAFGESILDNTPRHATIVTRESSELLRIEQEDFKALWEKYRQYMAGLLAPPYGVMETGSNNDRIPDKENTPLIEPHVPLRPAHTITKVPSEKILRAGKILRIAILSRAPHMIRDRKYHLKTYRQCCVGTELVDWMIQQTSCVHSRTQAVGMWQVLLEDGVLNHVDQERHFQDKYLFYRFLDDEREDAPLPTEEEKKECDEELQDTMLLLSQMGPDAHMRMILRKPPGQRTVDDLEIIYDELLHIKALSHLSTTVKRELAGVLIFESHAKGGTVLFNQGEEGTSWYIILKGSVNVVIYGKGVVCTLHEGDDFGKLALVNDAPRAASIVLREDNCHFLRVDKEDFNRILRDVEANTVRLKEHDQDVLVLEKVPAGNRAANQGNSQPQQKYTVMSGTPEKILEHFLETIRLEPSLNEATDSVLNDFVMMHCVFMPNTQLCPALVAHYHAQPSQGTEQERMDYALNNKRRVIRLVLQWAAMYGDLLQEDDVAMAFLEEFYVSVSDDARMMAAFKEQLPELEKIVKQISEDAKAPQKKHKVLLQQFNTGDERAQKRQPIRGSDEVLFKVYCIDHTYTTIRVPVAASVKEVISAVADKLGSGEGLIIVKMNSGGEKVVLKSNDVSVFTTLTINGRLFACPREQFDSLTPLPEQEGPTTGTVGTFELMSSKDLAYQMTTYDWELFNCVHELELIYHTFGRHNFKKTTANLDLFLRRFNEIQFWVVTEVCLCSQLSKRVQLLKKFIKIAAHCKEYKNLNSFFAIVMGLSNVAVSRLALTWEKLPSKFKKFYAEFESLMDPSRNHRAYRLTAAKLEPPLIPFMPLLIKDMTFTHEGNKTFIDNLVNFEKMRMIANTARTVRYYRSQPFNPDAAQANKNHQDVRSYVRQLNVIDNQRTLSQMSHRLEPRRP

PKA = conditions: at 25 μM; cited from earlier work
pancreatic cell lines = conditions: cited from earlier work
[5] = tested on: pancreatic cancer cell lines; conditions: cited from earlier work
rickettsioses = conditions: daily 10 mg/kg IP or 50 mg/kg oral gavage, mice; cited from earlier work
[6] = tested on: ovalbumin-induced oral tolerance; conditions: daily 10 mg/kg IP or 50 mg/kg oral gavage; cited from earlier work
[7] = 50 mg/kg oral gavage daily 6 days, starting 3 days after SNI

## CC(C)(C)c1cc(C(=O)/C(C#N)=N/Nc2cccc(Cl)c2)no1 [ESI-09, 3-(5-tert-Butyl-isoxazol-3-yl)-2-[(3-chlorophenyl)-hydrazono]-3-oxo-propionitrile]
[1]; 5 mg/kg (lowest dose), started 3rd day after CFA
  CFA-induced mechanical allodynia: did not observe an effect
[1]; 20 mg/kg daily oral gavage 6 days, starting immediately after CFA
  CFA-induced mechanical allodynia: strongly inhibited
[1]; 20 mg/kg oral, started three days after CFA
  time inhibition is maintained after administration: at least 24 h
[1]; 20 mg/kg oral, started three days after CFA, 2 hours after administration
  inhibition of CFA-induced mechanical allodynia at 2 hours: Partial inhibition
[1]; 20 mg/kg oral, started three days after CFA, 6 hours after administration
  inhibition of CFA-induced mechanical allodynia at 6 hours: fully developed
[1]; 20 mg/kg, started 3rd day after CFA
  CFA-induced mechanical allodynia: significantly reduced
[1]; 50 mg/kg daily oral
  mechanical sensitivity in saline treated control mice: No effect
[1]; 50 mg/kg, started 3rd day after CFA
  CFA-induced mechanical allodynia: significantly reduced
[1]; 5, 20 or 50 mg/kg, started 3rd day after CFA
  dose dependence of effect on CFA-induced mechanical allodynia: dose-dependent
[1]; CFA model
  time beneficial effect detectable after the last dose: at least 24 hours
[1]; ESI-09 given to control mice (no CFA)
  mechanical sensitivity of control mice: did not have any effect
[2]; 20 mg/kg daily oral gavage
  CFA-induced heat hyperalgesia: no effect
[2]; naïve animals
  heat sensitivity of naïve animals: did not affect
[3]; [7]
  SNI-induced mechanical allodynia, ipsilateral paw: almost completely reversed
  normal mechanical sensitivity, contralateral paw: without affecting
[3]; SNI model, 50 mg/kg
  time beneficial effect maintained after the last dose: 48 h
[4]; 20 mg/kg oral gavage daily 6 days, started first day after completion of paclitaxel
  paclitaxel-induced mechanical allodynia: almost completely rescued
[4]; paclitaxel model, 20 mg/kg
  time beneficial effect detectable after the last dose: 72 h
[4]; treatment delayed until 10 days after completion of paclitaxel
  paclitaxel-induced mechanical allodynia, later phase: significantly inhibited
EPAC2
  IC50: 1.4 µM
PKA
  activity against PKA: no activity
Pancreatic cell lines
  insulin secretion: blocks
  phosphorylation of Akt: blocks
[5]
  migration of pancreatic cancer cell lines: inhibits
rickettsioses
  protection from lethal rickettsioses (recapitulates EPAC1 knockout phenotype): protecting mice from lethal rickettsioses
[6]
  ovalbumin-induced oral tolerance (recapitulates EPAC1 knockout phenotype): compromising ovalbumin-induced oral tolerance
